Measured values as given in patent publication US10392368B2, “Pyrazolo and triazolo bicyclic compounds as JAK kinase inhibitors” (THERAVANCE BIOPHARMA R&D IP, LLC, priority 2017, dated 2019).
Read-outs that look alike come from different tables or passages of the source.

What was measured:
JAK1 = molecular target: T1, JAK1 (Homo sapiens, UniProt P23458); experiment: Biochemical JAK1 kinase assay (LanthaScreen); conditions: for Ki: read-out: JAK 1 (pKi) (converted)
T1 construct: GST; purchased Life Technologies
T1 sequence (P23458 whole entry): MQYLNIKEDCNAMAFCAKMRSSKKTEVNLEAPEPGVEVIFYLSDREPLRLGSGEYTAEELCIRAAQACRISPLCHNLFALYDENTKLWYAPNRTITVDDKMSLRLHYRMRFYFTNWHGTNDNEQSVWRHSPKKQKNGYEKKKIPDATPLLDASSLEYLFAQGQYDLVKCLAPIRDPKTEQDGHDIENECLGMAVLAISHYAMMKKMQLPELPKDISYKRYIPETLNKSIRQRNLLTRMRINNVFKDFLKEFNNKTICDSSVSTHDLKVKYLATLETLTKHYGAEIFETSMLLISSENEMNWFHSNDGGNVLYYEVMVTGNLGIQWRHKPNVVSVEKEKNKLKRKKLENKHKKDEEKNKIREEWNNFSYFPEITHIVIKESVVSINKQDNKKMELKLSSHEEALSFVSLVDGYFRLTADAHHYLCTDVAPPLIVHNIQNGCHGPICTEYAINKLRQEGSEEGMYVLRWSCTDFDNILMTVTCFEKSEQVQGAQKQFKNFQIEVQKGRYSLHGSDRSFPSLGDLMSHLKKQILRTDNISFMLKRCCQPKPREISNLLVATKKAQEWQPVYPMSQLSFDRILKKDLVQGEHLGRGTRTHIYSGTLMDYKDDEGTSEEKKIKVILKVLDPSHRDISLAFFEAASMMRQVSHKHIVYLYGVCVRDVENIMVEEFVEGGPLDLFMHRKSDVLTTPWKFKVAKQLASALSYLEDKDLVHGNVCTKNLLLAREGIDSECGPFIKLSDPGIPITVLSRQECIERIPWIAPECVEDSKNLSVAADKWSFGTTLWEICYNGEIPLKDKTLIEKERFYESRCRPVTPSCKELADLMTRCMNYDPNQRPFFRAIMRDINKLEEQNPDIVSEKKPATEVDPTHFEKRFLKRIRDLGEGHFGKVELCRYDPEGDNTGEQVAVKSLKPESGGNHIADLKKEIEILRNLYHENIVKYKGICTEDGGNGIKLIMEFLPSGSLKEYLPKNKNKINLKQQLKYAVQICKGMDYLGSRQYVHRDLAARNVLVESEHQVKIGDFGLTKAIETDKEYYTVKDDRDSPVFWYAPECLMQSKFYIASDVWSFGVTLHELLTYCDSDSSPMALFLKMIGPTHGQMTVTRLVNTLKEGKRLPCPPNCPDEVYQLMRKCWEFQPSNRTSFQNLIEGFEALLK
Outline: (§1)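 TR-FRET read-out: terbium anti-pSTAT1 (pTyr701) antibody, 2 nM, with 10 mM EDTA quench, emission ratio 520/495 nm. GST-JAK phosphorylates GFP-STAT1 peptide for 1 h at ambient temperature after 1 h compound pre-incubation. pIC50 from dose-response converted to pKi by Cheng-Prusoff.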

JAK2 = molecular target: T2, JAK2 (Homo sapiens, UniProt O60674); experiment: Biochemical JAK2 kinase assay (LanthaScreen); conditions: for Ki: read-out: JAK 2 (pKi) (converted)
T2 construct: GST; purchased Life Technologies
T2 sequence (O60674 whole entry): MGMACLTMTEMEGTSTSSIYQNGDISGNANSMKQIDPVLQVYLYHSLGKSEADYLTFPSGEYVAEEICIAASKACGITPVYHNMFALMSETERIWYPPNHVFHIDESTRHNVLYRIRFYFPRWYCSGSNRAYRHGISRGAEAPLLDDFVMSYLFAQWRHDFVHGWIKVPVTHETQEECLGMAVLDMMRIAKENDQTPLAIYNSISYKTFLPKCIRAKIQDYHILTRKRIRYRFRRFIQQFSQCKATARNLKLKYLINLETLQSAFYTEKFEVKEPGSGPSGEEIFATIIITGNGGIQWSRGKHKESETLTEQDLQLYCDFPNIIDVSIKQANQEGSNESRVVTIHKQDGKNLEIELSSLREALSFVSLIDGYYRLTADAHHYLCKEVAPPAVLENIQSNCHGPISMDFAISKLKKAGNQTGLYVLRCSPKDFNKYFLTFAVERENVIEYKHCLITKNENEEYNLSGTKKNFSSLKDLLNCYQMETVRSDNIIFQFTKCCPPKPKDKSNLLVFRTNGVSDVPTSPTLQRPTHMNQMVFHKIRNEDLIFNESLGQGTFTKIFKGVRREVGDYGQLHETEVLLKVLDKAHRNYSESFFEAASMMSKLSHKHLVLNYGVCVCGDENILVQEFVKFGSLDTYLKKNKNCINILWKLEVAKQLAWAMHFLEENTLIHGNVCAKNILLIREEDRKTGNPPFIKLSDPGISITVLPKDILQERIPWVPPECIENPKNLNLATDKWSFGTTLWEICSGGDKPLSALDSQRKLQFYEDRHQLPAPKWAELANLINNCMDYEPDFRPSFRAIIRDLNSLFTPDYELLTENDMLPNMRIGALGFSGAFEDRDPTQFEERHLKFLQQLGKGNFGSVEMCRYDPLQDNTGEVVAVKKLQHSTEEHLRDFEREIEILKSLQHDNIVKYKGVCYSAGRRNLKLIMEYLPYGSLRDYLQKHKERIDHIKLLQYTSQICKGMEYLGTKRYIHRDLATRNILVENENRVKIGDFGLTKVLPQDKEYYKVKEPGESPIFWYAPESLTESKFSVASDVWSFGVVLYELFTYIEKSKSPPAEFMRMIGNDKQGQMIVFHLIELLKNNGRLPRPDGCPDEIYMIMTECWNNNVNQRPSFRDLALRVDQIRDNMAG
Outline: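 GST-tagged recombinant JAK2 pre-incubated 1 h at ambient temperature with compound and GFP-STAT1 peptide in HEPES pH 7.5/MgCl2 buffer, then ATP added for a 1 h reaction with 1% DMSO. TR-FRET read after EDTA and Tb-anti-pSTAT1 (pTyr701) addition; IC50 from 4-parameter fit, converted to pKi by Cheng-Prusoff.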

Tyk2 = molecular target: T3, Tyk2 (Homo sapiens, UniProt P29597); experiment: Biochemical Tyk2 kinase assay (LanthaScreen); conditions: for Ki: read-out: Tyk 2 (pKi) (converted)
T3 construct: GST; purchased Life Technologies
T3 sequence (P29597 whole entry): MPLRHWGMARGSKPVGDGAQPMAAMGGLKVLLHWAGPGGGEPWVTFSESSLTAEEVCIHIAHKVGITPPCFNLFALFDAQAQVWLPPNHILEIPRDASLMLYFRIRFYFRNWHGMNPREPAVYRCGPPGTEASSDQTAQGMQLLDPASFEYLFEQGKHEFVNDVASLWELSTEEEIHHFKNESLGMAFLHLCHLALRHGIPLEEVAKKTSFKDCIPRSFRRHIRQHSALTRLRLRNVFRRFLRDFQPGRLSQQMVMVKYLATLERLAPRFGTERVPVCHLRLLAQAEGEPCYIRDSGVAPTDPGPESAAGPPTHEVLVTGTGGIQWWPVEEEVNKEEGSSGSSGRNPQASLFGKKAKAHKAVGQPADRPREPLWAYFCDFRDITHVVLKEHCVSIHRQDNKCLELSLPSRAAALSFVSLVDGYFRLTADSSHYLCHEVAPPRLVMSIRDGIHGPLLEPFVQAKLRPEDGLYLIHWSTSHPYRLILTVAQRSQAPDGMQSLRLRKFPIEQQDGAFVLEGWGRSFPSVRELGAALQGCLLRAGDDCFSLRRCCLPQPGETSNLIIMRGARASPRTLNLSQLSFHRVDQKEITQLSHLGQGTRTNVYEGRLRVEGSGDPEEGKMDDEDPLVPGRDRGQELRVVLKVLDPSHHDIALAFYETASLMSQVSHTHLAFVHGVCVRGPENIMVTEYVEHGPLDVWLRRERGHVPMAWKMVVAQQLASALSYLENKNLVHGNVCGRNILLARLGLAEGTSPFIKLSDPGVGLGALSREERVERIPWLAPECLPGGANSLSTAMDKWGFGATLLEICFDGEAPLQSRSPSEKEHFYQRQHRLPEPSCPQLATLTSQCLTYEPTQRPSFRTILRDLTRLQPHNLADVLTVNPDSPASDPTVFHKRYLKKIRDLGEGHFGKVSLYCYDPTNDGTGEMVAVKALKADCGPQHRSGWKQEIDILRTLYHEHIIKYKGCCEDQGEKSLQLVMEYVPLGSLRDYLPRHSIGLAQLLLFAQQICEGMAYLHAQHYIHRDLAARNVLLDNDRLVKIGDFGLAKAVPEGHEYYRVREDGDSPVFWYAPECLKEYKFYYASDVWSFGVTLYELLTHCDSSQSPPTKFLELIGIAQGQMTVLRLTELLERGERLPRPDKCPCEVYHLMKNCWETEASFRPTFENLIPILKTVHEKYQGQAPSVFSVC
Outline: as §1

[1] = test system: IL-2 stimulated pSTAT5 in Tall-1 T cells; experiment: Cellular JAK3 potency assay: inhibition of IL-2 stimulated pSTAT5 in Tall-1 T cells; assay type: cell-based, human; conditions: for IC50: Homo sapiens, read-out: Tall-1 (pIC50) (converted)
Outline: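 Tall-1 human T cells (45,000/well) in phenol red-free DMEM with 10% FBS were preincubated with compound 1 h at 37 °C, then stimulated with IL-2 (final 300 ng/ml) for 30 min. Lysate pSTAT5 read by AlphaLisa; IC50 from inhibition curves, reported as pIC50 (mean±SD).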

JAK3 = molecular target: T4, JAK3 (Homo sapiens, UniProt P52333); experiment: Biochemical JAK3 kinase assay (LanthaScreen); set-up: GST; purchased Life Technologies; conditions: for Ki: read-out: JAK 3 (pKi) (converted)
T4 sequence (P52333 1-1124): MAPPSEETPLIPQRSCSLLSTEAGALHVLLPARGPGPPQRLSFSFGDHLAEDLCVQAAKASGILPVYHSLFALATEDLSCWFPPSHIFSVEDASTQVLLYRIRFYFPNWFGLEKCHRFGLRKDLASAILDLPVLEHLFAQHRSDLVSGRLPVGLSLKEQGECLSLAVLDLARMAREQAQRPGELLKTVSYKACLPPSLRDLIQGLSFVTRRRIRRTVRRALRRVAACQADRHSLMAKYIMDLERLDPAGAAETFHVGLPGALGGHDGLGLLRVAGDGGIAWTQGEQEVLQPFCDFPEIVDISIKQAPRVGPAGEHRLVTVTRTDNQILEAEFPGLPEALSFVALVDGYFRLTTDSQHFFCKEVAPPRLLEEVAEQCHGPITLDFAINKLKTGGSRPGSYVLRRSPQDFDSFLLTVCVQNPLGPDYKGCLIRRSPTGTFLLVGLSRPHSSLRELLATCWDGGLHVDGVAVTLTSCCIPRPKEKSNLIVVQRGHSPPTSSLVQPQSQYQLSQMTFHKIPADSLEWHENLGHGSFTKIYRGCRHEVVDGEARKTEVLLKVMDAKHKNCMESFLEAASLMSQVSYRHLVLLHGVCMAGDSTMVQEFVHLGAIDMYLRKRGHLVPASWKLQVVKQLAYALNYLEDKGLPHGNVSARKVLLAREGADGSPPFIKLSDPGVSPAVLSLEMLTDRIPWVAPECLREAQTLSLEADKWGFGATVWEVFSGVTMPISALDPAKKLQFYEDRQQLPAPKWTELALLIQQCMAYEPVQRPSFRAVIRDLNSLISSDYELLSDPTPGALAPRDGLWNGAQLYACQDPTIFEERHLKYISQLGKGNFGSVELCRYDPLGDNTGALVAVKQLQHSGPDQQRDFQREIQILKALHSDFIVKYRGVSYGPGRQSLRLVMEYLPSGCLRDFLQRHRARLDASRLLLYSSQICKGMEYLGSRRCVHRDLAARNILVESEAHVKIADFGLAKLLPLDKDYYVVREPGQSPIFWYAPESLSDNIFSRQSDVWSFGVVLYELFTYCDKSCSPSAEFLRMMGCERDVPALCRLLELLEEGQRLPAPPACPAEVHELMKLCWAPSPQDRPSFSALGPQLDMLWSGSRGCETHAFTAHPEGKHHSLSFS
Outline: as §1

[2] = IL-2 stimulated pSTAT5, Tall-1 T cells
[3] = selectivity JAK3 over JAK1, difference of pKi
[4] = TALL-1, IL-2 stimulated pSTAT5 in Tall-1 T cells
[5] = selectivity: difference of pKi JAK3 and pKi JAK1

Structure (SMILES) | JAK 1 (pKi) (JAK1) | JAK 2 (pKi) (JAK2) | Tyk 2 (pKi) (Tyk2) | Tall-1 (pIC50) [1, 2] | JAK 3 (pKi) (JAK3) | JAK3 (pKi)-JAK1 (pKi) (JAK3; [3]) | Ki (JAK1) [µM] | Ki (JAK2) [µM] | Ki (Tyk2) [µM] | IC50 [1, 4] [µM] | Ki (JAK3) [µM] | JAK3 (pKi)-JAK1 (pKi) (JAK3; [5]) | IC50 ([1]; TALL-1, IL-2 stimulated pSTAT5, Tall-1 T cells) [µM] | Tall-1 (pIC50) ([1]; IL-2 stimulated pSTAT5 in Tall-1 T cells)
C=CC(=O)N1CCC(Oc2cc(-c3ccc(O)cc3)nc3[nH]ncc23)CC1C (stereo not drawn) [Compound 13-11] | E (a pKi value of 7 or below (Ki of 100 nM or above)) | E (a pKi value of 7 or below (Ki of 100 nM or above)) | E (a pKi value of 7 or below (Ki of 100 nM or above)) | A (a pIC50 value≥7.5 (IC50≤32 nM)) | A (a pKi value≥10 (Ki≤0.1 nM)) | A (a value of 3 or above) |  |  |  |  |  |  |  | 
Cc1cc(-c2cc(OCC3CN(C(=O)/C=C/CN(C)C)C3)c3cn[nH]c3c2)ccc1O [Compound 18-8] | E (a pKi value of 7 or below (Ki of 100 nM or above)) | E (a pKi value of 7 or below (Ki of 100 nM or above)) | E (a pKi value of 7 or below (Ki of 100 nM or above)) | B (a pIC50 value between 6.7 (included) and 7.5 (IC50 between 200 nM and 32 nM)) | B (a pKi value between 9 and 10 (Ki between 1 nM and 0.1 nM)) | A (a value of 3 or above) |  |  |  |  |  |  |  | 
C=CC(=O)N1CCC(N(C)c2cc(-c3ccc(O)c(Cl)c3)cc3[nH]ncc23)CC1 [Compound 7-7] | E (a pKi value of 7 or below (Ki of 100 nM or above)) | D (a pKi value between 7 and 8 (Ki between 100 nM and 10 nM)) | E (a pKi value of 7 or below (Ki of 100 nM or above)) | B (a pIC50 value between 6.7 (included) and 7.5 (IC50 between 200 nM and 32 nM)) | B (a pKi value between 9 and 10 (Ki between 1 nM and 0.1 nM)) | A (a value of 3 or above) |  |  |  |  |  |  |  | 
CN(C)C/C=C/C(=O)N1CC(COc2cc(-c3ccc(O)c(Cl)c3)cc3[nH]ncc23)C1 [Compound 3-2] |  |  |  |  |  |  | > 0.1 | > 0.1 | > 0.1 | 0.0316 to 0.2 | 0.0001 to 0.001 | A (a value of 3 or above) |  | 
C=CC(=O)N1CC2(CCC2Oc2nc(-c3ccc(O)cc3)nc3[nH]ncc23)C1 (stereo not drawn) [Compound 13-16] | E (a pKi value of 7 or below (Ki of 100 nM or above)) | E (a pKi value of 7 or below (Ki of 100 nM or above)) | E (a pKi value of 7 or below (Ki of 100 nM or above)) | B (a pIC50 value between 6.7 (included) and 7.5 (IC50 between 200 nM and 32 nM)) | B (a pKi value between 9 and 10 (Ki between 1 nM and 0.1 nM)) | A (a value of 3 or above) |  |  |  |  |  |  |  | 
C=CC(=O)N1CCC(C)(Oc2cc(-c3ccc(O)cc3)cc3[nH]ncc23)CC1 [Compound 6-3] |  |  |  |  |  | A (a value of 3 or above) | > 0.1 | 0.01 to 0.1 | > 0.1 |  | 0.0001 to 0.001 |  | < 0.0316 | 
C=CC(=O)N1CCC(C)(Oc2cc(-c3ccc(O)cc3)cc3[nH]ncc23)C1 (stereo not drawn) [Compound 13-15] | E (a pKi value of 7 or below (Ki of 100 nM or above)) | D (a pKi value between 7 and 8 (Ki between 100 nM and 10 nM)) | E (a pKi value of 7 or below (Ki of 100 nM or above)) | B (a pIC50 value between 6.7 (included) and 7.5 (IC50 between 200 nM and 32 nM)) | B (a pKi value between 9 and 10 (Ki between 1 nM and 0.1 nM)) | A (a value of 3 or above) |  |  |  |  |  |  |  | 
C=CC(=O)N1CC[C@H](Oc2cc(-c3cc(F)c(O)cc3C)cc3[nH]ncc23)C1 [Compound 1-16] |  |  |  |  |  |  | > 0.1 | 0.01 to 0.1 | > 0.1 | 0.0316 to 0.2 | 0.0001 to 0.001 | B (a value of 2.3 to 3) |  | 
CN(C)C/C=C/C(=O)N1CC(CSc2cc(-c3ccc(O)cc3)cc3[nH]ncc23)C1 [Compound 13-4] | E (a pKi value of 7 or below (Ki of 100 nM or above)) | D (a pKi value between 7 and 8 (Ki between 100 nM and 10 nM)) | E (a pKi value of 7 or below (Ki of 100 nM or above)) | B (a pIC50 value between 6.7 (included) and 7.5 (IC50 between 200 nM and 32 nM)) | A (a pKi value≥10 (Ki≤0.1 nM)) | A (a value of 3 or above) |  |  |  |  |  |  |  | 
C=CC(=O)N1CC(COc2cc(-c3ccc(O)c(Cl)c3)nc3[nH]ncc23)C1 [Compound 3-86] |  |  |  |  |  |  | > 0.1 | > 0.1 | > 0.1 | 0.0316 to 0.2 | < 0.0001 | A (a value of 3 or above) |  | 
C=CC(=O)N1CCC[C@H](Oc2nc(-c3ccc(O)c(F)c3)cc3[nH]ncc23)C1 [Compound 8-11] | D (a pKi value between 7 and 8 (Ki between 100 nM and 10 nM)) | D (a pKi value between 7 and 8 (Ki between 100 nM and 10 nM)) | E (a pKi value of 7 or below (Ki of 100 nM or above)) | A (a pIC50 value≥7.5 (IC50≤32 nM)) | A (a pKi value≥10 (Ki≤0.1 nM)) | B (a value of 2.3 to 3) |  |  |  |  |  |  |  | 
CN(C)C/C=C/C(=O)N1CC(OCc2cc(-c3ccc(O)c(F)c3)cc3[nH]ncc23)C1 [Compound 16-7] | E (a pKi value of 7 or below (Ki of 100 nM or above)) | E (a pKi value of 7 or below (Ki of 100 nM or above)) | E (a pKi value of 7 or below (Ki of 100 nM or above)) | B (a pIC50 value between 6.7 (included) and 7.5 (IC50 between 200 nM and 32 nM)) | A (a pKi value≥10 (Ki≤0.1 nM)) | A (a value of 3 or above) |  |  |  |  |  |  |  | 
C=CC(=O)N1CC(COc2cc(-c3ccc(O)c(F)c3)nc3[nH]ncc23)C1 [Compound 3-87] |  |  |  |  |  |  | > 0.1 | > 0.1 | > 0.1 | 0.0316 to 0.2 | 0.0001 to 0.001 | A (a value of 3 or above) |  | 
COCCN(C)C/C=C/C(=O)N1CC(COc2cc(-c3ccc(O)cc3)cc3[nH]ncc23)C1 [Compound 3-119] |  |  |  |  |  |  | > 0.1 | 0.01 to 0.1 | > 0.1 | 0.0316 to 0.2 | < 0.0001 | B (a value of 2.3 to 3) |  | 
CN(C)C/C=C/C(=O)N1CC(F)(COc2nc(-c3ccc(O)c(Cl)c3)cc3[nH]ncc23)C1 [Compound 3-91] |  |  |  |  |  |  | 0.01 to 0.1 | 0.01 to 0.1 | > 0.1 | < 0.0316 | < 0.0001 | A (a value of 3 or above) |  | 
C=CC(=O)N1CC(F)(COc2nc(-c3ccc(O)cc3)nc3[nH]ncc23)C1 [Compound 3-45] |  |  |  |  |  |  | > 0.1 | > 0.1 | > 0.1 | < 0.0316 | 0.0001 to 0.001 | A (a value of 3 or above) |  | 
CN(C)C/C=C/C(=O)N1CC(F)(COc2cc(-c3ccc(O)cc3)cc3[nH]ncc23)C1 [Compound 3-5] | D (a pKi value between 7 and 8 (Ki between 100 nM and 10 nM)) | D (a pKi value between 7 and 8 (Ki between 100 nM and 10 nM)) | E (a pKi value of 7 or below (Ki of 100 nM or above)) |  | B (a pKi value between 9 and 10 (Ki between 1 nM and 0.1 nM)) |  |  |  |  |  |  | B (a value of 2.3 to 3) |  | A (a pIC50 value≥7.5 (IC50≤32 nM))
